In patent US10143695B2 (priority 2016, dated 2018):
pIC50: −log10 of the molar value.

Tests used:
Format in all cases: cell-based
[1] = test system: MCF7 cells (HER2 low expressing levels cells); experiment: CellTiter-Glo cell viability assay, MCF7; settings: Homo sapiens, MCF7; PBD compounds, 72 h incubation
Description: (§1) PBD compounds and conjugates thereof were evaluated for their antiproliferation properties in tumor cell lines in vitro using CellTiter-Glo® (Promega Corp). Cells were plated in black walled 96-well plate and allowed to adhere overnight at 37° C. in a humidified atmosphere of 5% CO2. BT474, SKBR3, NCI-N87 cells (HER2 expressing cells), JIMT1 cells (HER2 medium expression level cells) and MCF7 cells (HER2 low expressing levels cells) and were plated at a density of 5,000 cells per well. The next day the medium was replaced with 50 μL fresh medium and 50 μL of 2× stocks of PBD compounds or antibody-PBD conjugate were added to appropriate wells, mixed and incubated for 72 h. CellTiter-Glo® reagent was added to the wells at room temperature and the luminescent signal was measured after 10 min using a SpectraMax M5 plate reader (Molecular Devices). Dose response curves were generated using SoftMax Pro software. IC50 values were determined from four-parameter curve fitting.

[2] = test system: BT474 cells (HER2 expressing cells); experiment: CellTiter-Glo cell viability assay, BT474; settings: Homo sapiens, BT-474; PBD compounds, 72 h incubation
Description: as §1

[3] = test system: SKBR3 cells (HER2 expressing cells); experiment: CellTiter-Glo cell viability assay, SKBR3; settings: Homo sapiens, SK-BR-3; PBD compounds, 72 h incubation
Description: as §1

[4] = test system: JIMT1 cells (HER2 medium expression level cells); experiment: CellTiter-Glo cell viability assay, JIMT1; settings: Homo sapiens, JIMT-1; PBD compounds, 72 h incubation
Description: as §1

[5] = test system: NCI-N87 cells (HER2 expressing cells); experiment: CellTiter-Glo cell viability assay, NCI-N87; settings: Homo sapiens, NCI-N87; PBD compounds, 72 h incubation
Description: as §1

Structure (SMILES): C=C1C[C@H]2C=Nc3cc(OCCCC(=O)Nc4cn(C)c(C(=O)Nc5cc(C(=O)Nc6cc(C(=O)n7ccc8cc(N)ccc87)n(C)c6)n(C)c5)n4)c(OC)cc3C(=O)N2C1 [Compound 8, (S,Z)-N-(5-((5-(5-amino-1H-indole-1-carbonyl)-1-methyl-1H-pyrrol-3-yl)carbamoyl)-1-methyl-1H-pyrrol-3-yl)-4-(4-((7-methoxy-2-methylene-5-oxo-2,3,5,11a-tetrahydro-1H-benzo[e]pyrrolo[1,2-a][1,4]diazepin-8-yl)oxy)butanamido)-1-methyl-1H-imidazole-2-carboxamide]
- pIC50 [1]: 8.40
- pIC50 [2]: 9.08
- pIC50 [3]: 9.82
- pIC50 [4]: 8.66
- pIC50 [5]: 9.37

Structure (SMILES): C=C1C[C@H]2C=Nc3cc(OCCCC(=O)Nc4cn(C)c(C(=O)Nc5cc(C(=O)Nc6cc(C(=O)n7ccc8cc(C(=O)OC)ccc87)n(C)c6)n(C)c5)n4)c(OC)cc3C(=O)N2C1 [Compound 8A, (S,Z)-methyl 1-(4-(4-(4-(4-(7-methoxy-2-methylene-5-oxo-2,3,5,11a-tetrahydro-1H-benzo[e]pyrrolo[1,2-a][1,4]diazepin-8-yloxy)butanamido)-1-methyl-1H-imidazole-2-carboxamido)-1-methyl-1H-pyrrole-2-carboxamido)-1-methyl-1H-pyrrole-2-carbonyl)-1H-indole-5-carboxylate]
- pIC50 [1]: 8.43
- pIC50 [2]: 9.08
- pIC50 [3]: 9.85
- pIC50 [4]: 9.26
- pIC50 [5]: 8.54

Structure (SMILES): C=C1C[C@H]2C=Nc3cc(OCCCC(=O)Nc4cn(C)c(C(=O)Nc5cc(C(=O)Nc6cc(C(=O)n7ccc8c(N)cccc87)n(C)c6)n(C)c5)n4)c(OC)cc3C(=O)N2C1 [Compound 11A, (S,Z)-N-(5-(5-(4-amino-1H-indole-1-carbonyl)-1-methyl-1H-pyrrol-3-ylcarbamoyl)-1-methyl-1H-pyrrol-3-yl)-4-(4-(7-methoxy-2-methylene-5-oxo-2,3,5,11a-tetrahydro-1H-benzo[e]pyrrolo[1,2-a][1,4]diazepin-8-yloxy)butanamido)-1-methyl-1H-imidazole-2-carboxamide]
- pIC50 [1]: 7.83
- pIC50 [2]: 8.40
- pIC50 [3]: 9.17
- pIC50 [4]: 7.95
- pIC50 [5]: 8.82

Structure (SMILES): C=C1C[C@H]2C=Nc3cc(OCCCC(=O)Nc4cn(C)c(C(=O)Nc5cc(C(=O)n6ccc7cc(N)ccc76)n(C)c5)n4)c(OC)cc3C(=O)N2C1 [Compound 12, (S,Z)-N-(5-(5-amino-1H-indole-1-carbonyl)-1-methyl-1H-pyrrol-3-yl)-4-(4-((7-methoxy-2-methylene-5-oxo-2,3,5,11a-tetrahydro-1H-benzo[e]pyrrolo[1,2-a][1,4]diazepin-8-yl)oxy)butanamido)-1-methyl-1H-imidazole-2-carboxamide]
- pIC50 [1]: 7.86
- pIC50 [2]: 8.70
- pIC50 [3]: 9.40
- pIC50 [4]: 8.36
- pIC50 [5]: 8.15

Structure (SMILES): C=C1C[C@H]2C=Nc3cc(OCCCC(=O)Nc4cn(C)c(C(=O)Nc5cc(C(=O)Nc6cc(C(=O)n7ccc8ccc(N)cc87)n(C)c6)n(C)c5)n4)c(OC)cc3C(=O)N2C1 [Compound 13A, (S,Z)-N-(5-(5-(6-amino-1H-indole-1-carbonyl)-1-methyl-1H-pyrrol-3-ylcarbamoyl)-1-methyl-1H-pyrrol-3-yl)-4-(4-(7-methoxy-2-methylene-5-oxo-2,3,5,11a-tetrahydro-1H-benzo[e]pyrrolo[1,2-a][1,4]diazepin-8-yloxy)butanamido)-1-methyl-1H-imidazole-2-carboxamide]
- pIC50 [1]: 8.36
- pIC50 [2]: 8.60
- pIC50 [3]: 9.55
- pIC50 [4]: 8.44
- pIC50 [5]: 9.14

Structure (SMILES): C=C1C[C@H]2C=Nc3cc(OCCCC(=O)Nc4cn(C)c(C(=O)Nc5cc(C(=O)Nc6cc(C(=O)n7ccc8cc(SC)ccc87)n(C)c6)n(C)c5)n4)c(OC)cc3C(=O)N2C1 [Compound 19, (S,Z)-4-(4-(7-methoxy-2-methylene-5-oxo-2,3,5,11a-tetrahydro-1H-benzo[e]pyrrolo[1,2-a][1,4]diazepin-8-yloxy)butanamido)-1-methyl-N-(1-methyl-5-(1-methyl-5-(5-(methylthio)-1H-indole-1-carbonyl)-1H-pyrrol-3-ylcarbamoyl)-1H-pyrrol-3-yl)-1H-imidazole-2-carboxamide]
- pIC50 [1]: 8.68
- pIC50 [2]: 9.23
- pIC50 [3]: 9.70
- pIC50 [4]: 8.87
- pIC50 [5]: 9.46

Structure (SMILES): C=C1C[C@H]2C=Nc3cc(OCCCC(=O)Nc4cn(C)c(C(=O)Nc5cc(C(=O)Nc6cc(C(=O)n7ccc8cc(S(C)(=O)=O)ccc87)n(C)c6)n(C)c5)n4)c(OC)cc3C(=O)N2C1 [Compound 20, (S,Z)-4-(4-(7-methoxy-2-methylene-5-oxo-2,3,5,11a-tetrahydro-1H-benzo[e]pyrrolo[1,2-a][1,4]diazepin-8-yloxy)butanamido)-1-methyl-N-(1-methyl-5-(1-methyl-5-(5-(methylsulfonyl)-1H-indole-1-carbonyl)-1H-pyrrol-3-ylcarbamoyl)-1H-pyrrol-3-yl)-1H-imidazole-2-carboxamide]
- pIC50 [1]: 6.69
- pIC50 [2]: 6.90
- pIC50 [3]: 8.26
- pIC50 [4]: 7.70
- pIC50 [5]: 7.59

Structure (SMILES): C=C1C[C@H]2C=Nc3cc(OCCCC(=O)Nc4cn(C)c(C(=O)Nc5cc(C(=O)Nc6cc(C(=O)n7ncc8ccc(N)cc87)n(C)c6)n(C)c5)n4)c(OC)cc3C(=O)N2C1 [Compound 28, (S,Z)-N-(5-(5-(6-amino-1H-indazole-1-carbonyl)-1-methyl-1H-pyrrol-3-ylcarbamoyl)-1-methyl-1H-pyrrol-3-yl)-4-(4-(7-methoxy-2-methylene-5-oxo-2,3,5,11a-tetrahydro-1H-benzo[e]pyrrolo[1,2-a][1,4]diazepin-8-yloxy)butanamido)-1-methyl-1H-imidazole-2-carboxamide]
- pIC50 [1]: 8.59
- pIC50 [2]: 8.54
- pIC50 [3]: 9.80
- pIC50 [4]: 9.22
- pIC50 [5]: 8.99

Structure (SMILES): C=C1C[C@H]2C=Nc3cc(OCCCC(=O)Nc4cn(C)c(C(=O)Nc5cc(C(=O)Nc6cc(C(=O)O)n(C)c6)n(C)c5)n4)c(OC)cc3C(=O)N2C1 [Compound 51, (S,Z)-4-(4-(4-(4-(7-methoxy-2-methylene-5-oxo-2,3,5,11a-tetrahydro-1H-benzo[e]pyrrolo[1,2-a][1,4]diazepin-8-yloxy)butanamido)-1-methyl-1H-imidazole-2-carboxamido)-1-methyl-1H-pyrrole-2-carboxamido)-1-methyl-1H-pyrrole-2-carboxylic acid]
- pIC50 [1]: 6.52
- pIC50 [2]: 6.52
- pIC50 [3]: 6.59
- pIC50 [4]: 6.52
- pIC50 [5]: 6.52

Structure (SMILES): C=C1C[C@@H]2C=Nc3cc(OCCCC(=O)Nc4cc(C(=O)Nc5cc(C(=O)Nc6cc(C(=O)NCCCO)n(C)c6)n(C)c5)n(C)c4)c(OC)cc3C(=O)N2C1 [Compound 55, (R,Z)-N-(3-hydroxypropyl)-4-(4-(4-(4-(7-methoxy-2-methylene-5-oxo-2,3,5,11a-tetrahydro-1H-benzo[e]pyrrolo[1,2-a][1,4]diazepin-8-yloxy)butanamido)-1-methyl-1H-pyrrole-2-carboxamido)-1-methyl-1H-pyrrole-2-carboxamido)-1-methyl-1H-pyrrole-2-carboxamide]
- pIC50 [1]: 7.33
- pIC50 [2]: 8.12
- pIC50 [3]: 8.60
- pIC50 [4]: 8.70
- pIC50 [5]: 8.30
